Reference: patent publication USRE48461E1, “Modulation of androgen receptor expression” (Ionis Pharmaceuticals, Inc., priority 2012, dated 2021)

What was measured:
Type in all cases: cell-based, human
C4-2B cells = experiment: C4-2B cell proliferation (complete or CSS+DHT medium; Example 30); conditions: 5 days; for Proliferation (% untreated control): C4-2B cells
Procedure: After a treatment period of 5 days in complete medium or CSS+1 nM DHT medium, the proliferative capacity of the cancer cells was measured with using CellTiter 96® AQueous One or CellTiter-Glo® Solution Cell Proliferation kit (Promega), following the manufacturer's instructions.

AR V7 variant mRNA = experiment: AR V7 variant RNA in 22RV1 cells; conditions: RNAiMax, 48 hrs
LNCaP cells = experiment: LNCaP cell proliferation, ASO in combination with MDV3100 (Example 20); conditions: for Proliferation (% untreated control) in LNCaP without MDV-3100: 5 days
Procedure: LNCaP cells were plated at 1,000 cells per well. […] ISIS 549148 was included as a negative control. […] After a treatment period of 5 days, the proliferative capacity of the cancer cells was measured with CellTiter 96® AQueous One or CellTiter-Glo® Solution Cell Proliferation kit (Promega), following the manufacturer's instructions. […]

VCaP cells = experiment: VCaP cell proliferation; conditions: 5 days; for Proliferation (% untreated control): VCaP cells
Outline: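 VCaP cells treated 5 days in complete medium or charcoal-stripped serum medium with 1 nM DHT; proliferation read by CellTiter 96 AQueous One or CellTiter-Glo.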

[1] = complete medium or CSS+1 nM DHT

## TTGATTTAATGGTTGC [ISIS 560131] (MOE and (S)-cEt gapmer chemistry, further chemistry not given here) [targets intron 1]
C4-2B cells; CSS + DHT medium, 0.04 μM
  Proliferation (% untreated control): 111 % untreated control
C4-2B cells; CSS + DHT medium, 0.2 μM
  Proliferation (% untreated control): 75 % untreated control
C4-2B cells; CSS + DHT medium, 1 μM
  Proliferation (% untreated control): 49 % untreated control
C4-2B cells; CSS + DHT medium, 5.0 μM
  Proliferation (% untreated control): 40 % untreated control
C4-2B cells; complete medium, 0.04 μM
  Proliferation (% untreated control): 93 % untreated control
C4-2B cells; complete medium, 0.2 μM
  Proliferation (% untreated control): 50 % untreated control
C4-2B cells; complete medium, 1 μM
  Proliferation (% untreated control): 50 % untreated control
C4-2B cells; complete medium, 5.0 μM
  Proliferation (% untreated control): 41 % untreated control
C4-2B cells; [1]
  proliferation of C4-2B cells: reduced proliferation of the cells in a dose dependent compared to the control
AR V7 variant mRNA; CSS + DHT medium, 1.34 nM
  Percent inhibition of AR V7 variant: 63%
AR V7 variant mRNA; CSS + DHT medium, 4.0 nM
  Percent inhibition of AR V7 variant: 83%
AR V7 variant mRNA; CSS + DHT medium, 13.4 nM
  Percent inhibition of AR V7 variant: 93%
AR V7 variant mRNA; complete medium, 1.34 nM
  Percent inhibition of AR V7 variant: 12%
AR V7 variant mRNA; complete medium, 4.0 nM
  Percent inhibition of AR V7 variant: 29%
AR V7 variant mRNA; complete medium, 13.4 nM
  Percent inhibition of AR V7 variant: 57%
AR V7 variant mRNA; complete medium, 40 nM
  Percent inhibition of AR V7 variant: 81%
LNCaP cells; ASO dose 0.04 μM + 0.08 μM MDV-3100
  Proliferation (% untreated control) in LNCaP with 0.08 μM MDV-3100: 59 % untreated control
LNCaP cells; ASO dose 0.04 μM + 0.4 μM MDV-3100
  Proliferation (% untreated control) in LNCaP with 0.4 μM MDV-3100: 50 % untreated control
LNCaP cells; ASO dose 0.04 μM + 2.0 μM MDV-3100
  Proliferation (% untreated control) in LNCaP with 2.0 μM MDV-3100: 42 % untreated control
LNCaP cells; ASO dose 0.04 μM + […] MDV-3100
  Proliferation (% untreated control) in LNCaP with […] MDV-3100: 71 % untreated control
LNCaP cells; ASO dose 0.04 μM
  Proliferation (% untreated control) in LNCaP without MDV-3100: 76 % untreated control
LNCaP cells; ASO dose 0.08 μM + 0.08 μM MDV-3100
  Proliferation (% untreated control) in LNCaP with 0.08 μM MDV-3100: 99 % untreated control
LNCaP cells; ASO dose 0.08 μM + 0.4 μM MDV-3100
  Proliferation (% untreated control) in LNCaP with 0.4 μM MDV-3100: 68 % untreated control
LNCaP cells; ASO dose 0.08 μM + 2.0 μM MDV-3100
  Proliferation (% untreated control) in LNCaP with 2.0 μM MDV-3100: 45 % untreated control
LNCaP cells; ASO dose 0.08 μM + […] MDV-3100
  Proliferation (% untreated control) in LNCaP with […] MDV-3100: 103 % untreated control
LNCaP cells; ASO dose 0.08 μM
  Proliferation (% untreated control) in LNCaP without MDV-3100: 106 % untreated control
LNCaP cells; ASO dose 0.2 μM + 0.08 μM MDV-3100
  Proliferation (% untreated control) in LNCaP with 0.08 μM MDV-3100: 48 % untreated control
LNCaP cells; ASO dose 0.2 μM + 0.4 μM MDV-3100
  Proliferation (% untreated control) in LNCaP with 0.4 μM MDV-3100: 40 % untreated control
LNCaP cells; ASO dose 0.2 μM + 2.0 μM MDV-3100
  Proliferation (% untreated control) in LNCaP with 2.0 μM MDV-3100: 38 % untreated control
LNCaP cells; ASO dose 0.2 μM + […] MDV-3100
  Proliferation (% untreated control) in LNCaP with […] MDV-3100: 49 % untreated control
LNCaP cells; ASO dose 0.2 μM
  Proliferation (% untreated control) in LNCaP without MDV-3100: 50 % untreated control
LNCaP cells; ASO dose 1.0 μM + 0.08 μM MDV-3100
  Proliferation (% untreated control) in LNCaP with 0.08 μM MDV-3100: 27 % untreated control
LNCaP cells; ASO dose 1.0 μM + 0.4 μM MDV-3100
  Proliferation (% untreated control) in LNCaP with 0.4 μM MDV-3100: 26 % untreated control
LNCaP cells; ASO dose 1.0 μM + 2.0 μM MDV-3100
  Proliferation (% untreated control) in LNCaP with 2.0 μM MDV-3100: 23 % untreated control
LNCaP cells; ASO dose 1.0 μM + […] MDV-3100
  Proliferation (% untreated control) in LNCaP with […] MDV-3100: 25 % untreated control
LNCaP cells; ASO dose 1.0 μM
  Proliferation (% untreated control) in LNCaP without MDV-3100: 26 % untreated control
LNCaP cells; LNCaP cells
  synergy with MDV3100: synergistic with MDV3100
LNCaP cells; LNCaP cells, 0.04 μM ASO in combination with 0.08 μM MDV3100
  cell proliferation inhibited, combination: 41%
LNCaP cells; LNCaP cells, ASO alone at 0.04 μM
  inhibited cell proliferation, ASO alone: 24%
VCaP cells; CSS + DHT medium, 1.34 nM
  Proliferation (% untreated control): 95 % untreated control
VCaP cells; CSS + DHT medium, 4.0 nM
  Proliferation (% untreated control): 65 % untreated control
VCaP cells; CSS + DHT medium, 13.4 nM
  Proliferation (% untreated control): 42 % untreated control
VCaP cells; CSS + DHT medium, 40 nM
  Proliferation (% untreated control): 37 % untreated control
VCaP cells; complete medium, 1.34 nM
  Proliferation (% untreated control): 98 % untreated control
VCaP cells; complete medium, 4.0 nM
  Proliferation (% untreated control): 66 % untreated control
VCaP cells; complete medium, 13.4 nM
  Proliferation (% untreated control): 53 % untreated control
VCaP cells; complete medium, 40 nM
  Proliferation (% untreated control): 48 % untreated control
VCaP cells; [1]
  proliferation of VCaP cells: reduced proliferation of the cells in a dose dependent compared to the control
